In US20230295201A1 (Gilead Sciences, Inc., priority 2020, published 2023):

Legend:
Assay type in all cases: cell-based
RSV A strain A2 = test: RSV HAE EC50 (intracellular RSV RNA by real-time PCR in HAE cells); conditions: human respiratory syncytial virus, HAE, 72 h, read-out: RSV HAE EC50
Protocol: HAE cells are cultured at the air-liquid interface and have an apical side that is exposed to the air and a basal side that is in contact with the medium. Prior to experimentation, HAE were removed from their agar-based shipping packaging and were acclimated to 37° C./5% CO2 overnight in 1 ml of HAE Assay medium (AIR-100-MM, Mattek Corp). HAE were prepared for infection by washing the apical surface twice with 400 μL of PBS (either utilizing direct pipetting methods or by running each transwell through a trough containing PBS) to remove the mucus layer. Apical chambers were drained of PBS and tapped gently onto absorbent material to remove as much PBS as possible. After washing, the cells were transferred to fresh HAE maintenance media containing 4-fold serially diluted compound, delivered to the basal side of the cell monolayer, and apically infected with 100 μL of a 1:600 dilution of RSV A strain A2 1000× stock (ABI, Columbia, MD, cat #10-124-000) in HAE assay medium for 3 hours at 37° C. in 5% CO2. The virus inoculum was removed and the apical surface of the cells was washed 3 times with PBS using either method previously described. The cells were then cultured in the presence of compound for 3 days at 37° C. Following the incubation, total RNA was extracted from the HAE cells using a MagMAX-96 Viral RNA isolation kit (Applied Biosystems, Foster City, CA, Cat #AM1836) and intracellular RSV RNA was quantified by real-time PCR. Approximately 25 ng of purified RNA was added to a PCR reaction mixture that contained 0.9 μM RSV N Forward and RSV N Reverse primers, 0.2 μM RSV N Probe and 1×Taqman RNA-to-Ct 1-Step Kit (Applied Biosystems, Foster City, CA, Cat #4392938). RNA levels were normalized using a Tagman GAPDH control primer set (Applied Biosystems, Foster City, CA, Cat #402869). Real-Time PCR Primers and Probe Used in the RSV A2 HAE Antiviral Assay: […]

HRVc25 replicon = test: HRVc25 EC50 (replicon luciferase in H1-HeLa cells); conditions: 48 hrs
Protocol: (§1) First, HRV replicon RNA is prepared. 5 ug of DNA Template (HRVc15 or HRVc25) is linearized with 2 μL of MluI enzyme in NEB buffer-3 in a final volume of 25 μL for 3 hours at 37° C. Following incubation, linearized DNA is purified on a PCR purification column and the following in vitro transcription is performed using the following conditions: 10 μL of RiboMAX Express T7 2× buffer, 1-8 μL of linear DNA template (1 μg), 0-7 μL nuclease free water, 2 μL enzyme mix T7 express. The final volume of 20 μL is mixed and incubated at 37° C. for 30 min. Following incubation, 1 μL of RQ1 RNase free DNase is added and the mixture is incubated at 37° C. for 15 min. The resulting RNA is then purified with the MegaClear Kit (Gibco Life Technologies cat #11835-030) and is eluted two times with 50 μL of elution buffer at 95° C. […] Replicon activity is then measured by a Renilla-Glo Luciferase Assay system. Prior to signal quantification, plates are removed from incubators and are allowed to equilibrate to 25° C. after 50 uL is removed from each well. […] Plates are then incubated for 20 min at 25° C. under gentle agitation and luciferase signal are determined with a 0.1 second detection setting using an EnVision luciferase quantification reader.

HRVc15 replicon = test: HRVc15 EC50 (replicon luciferase in H1-HeLa cells); conditions: 48 hrs
Protocol: as §1

C[C@H](N[P@](=O)(OC[C@@]1(C#N)O[C@@H](c2ccc3c(N)ncnn23)[C@H](O)[C@@H]1O)Oc1ccccc1)C(=O)OC1CCCCC1 (single isomer, unassigned) [Example 6]
EC50 (RSV A strain A2): 20 nM
EC50 (HRVc25 replicon): 7 nM
EC50 (HRVc15 replicon): 9 nM
